Measurements taken from patent publication US9062124B2, “GIP-based mixed agonists for treatment of metabolic disorders and obesity” (priority 2008, dated 2015).
Entries after “also recorded” stand apart in the source; their conditions may differ. Where a SMILES comes first, the peptide text is derived from it. Bridges are numbered along the chain shown (N, C = ends). [ ]: non-standard residue; d: D form. Aib = CC(C)(N)C(=O)O

Columns and labels:
Format in all cases: cell-based
[1] = target: T1, GLP-1 receptor (Homo sapiens, UniProt P43220); test: cAMP synthesis functional assay (firefly luciferase reporter in HEK293 cells), GLP-1 receptor
T1 construct: expressed in transfected cells; host or cells: HEK293
T1 sequence (P43220 24-463, species assumed): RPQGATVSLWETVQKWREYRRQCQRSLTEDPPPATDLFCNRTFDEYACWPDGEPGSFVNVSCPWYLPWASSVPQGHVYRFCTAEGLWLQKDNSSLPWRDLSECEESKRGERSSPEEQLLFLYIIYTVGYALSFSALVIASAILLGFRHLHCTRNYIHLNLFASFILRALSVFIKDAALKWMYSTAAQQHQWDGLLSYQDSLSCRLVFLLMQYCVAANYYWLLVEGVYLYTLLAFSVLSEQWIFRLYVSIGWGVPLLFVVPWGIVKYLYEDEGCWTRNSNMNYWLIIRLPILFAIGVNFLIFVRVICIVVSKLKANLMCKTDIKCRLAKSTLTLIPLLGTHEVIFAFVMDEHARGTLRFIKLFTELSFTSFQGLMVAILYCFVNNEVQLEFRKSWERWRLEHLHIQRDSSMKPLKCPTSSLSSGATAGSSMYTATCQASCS

[2] = system: glucagon receptor, GLP-1 receptor or GIP receptor; test: Agonist profile across receptors assigned from the cAMP reporter assay data; details: assigned from the in vitro EC50 data of Tables 1-4
[3] = target: T2, glucagon receptor (Homo sapiens, UniProt P47871); test: cAMP synthesis functional assay (firefly luciferase reporter in HEK293 cells), glucagon receptor
T2 construct: expressed in transfected cells; host or cells: HEK293
T2 sequence (P47871 26-477): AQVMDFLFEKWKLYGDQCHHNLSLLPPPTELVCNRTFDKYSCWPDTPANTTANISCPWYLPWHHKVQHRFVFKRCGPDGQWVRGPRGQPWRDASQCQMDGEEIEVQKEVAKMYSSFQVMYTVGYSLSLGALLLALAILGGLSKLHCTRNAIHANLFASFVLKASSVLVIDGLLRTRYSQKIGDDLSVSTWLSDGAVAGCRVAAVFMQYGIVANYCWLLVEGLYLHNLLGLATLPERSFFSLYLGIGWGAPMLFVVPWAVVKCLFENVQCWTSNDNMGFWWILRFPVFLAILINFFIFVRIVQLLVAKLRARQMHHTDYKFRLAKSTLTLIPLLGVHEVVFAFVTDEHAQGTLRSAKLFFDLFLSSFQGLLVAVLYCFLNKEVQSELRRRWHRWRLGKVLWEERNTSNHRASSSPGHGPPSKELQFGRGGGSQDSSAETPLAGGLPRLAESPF

[4] = target: T3, GIP receptor (Homo sapiens, UniProt P48546); test: cAMP synthesis functional assay (firefly luciferase reporter in HEK293 cells), GIP receptor
T3 construct: expressed in transfected cells; host or cells: HEK293
T3 sequence (P48546 22-466): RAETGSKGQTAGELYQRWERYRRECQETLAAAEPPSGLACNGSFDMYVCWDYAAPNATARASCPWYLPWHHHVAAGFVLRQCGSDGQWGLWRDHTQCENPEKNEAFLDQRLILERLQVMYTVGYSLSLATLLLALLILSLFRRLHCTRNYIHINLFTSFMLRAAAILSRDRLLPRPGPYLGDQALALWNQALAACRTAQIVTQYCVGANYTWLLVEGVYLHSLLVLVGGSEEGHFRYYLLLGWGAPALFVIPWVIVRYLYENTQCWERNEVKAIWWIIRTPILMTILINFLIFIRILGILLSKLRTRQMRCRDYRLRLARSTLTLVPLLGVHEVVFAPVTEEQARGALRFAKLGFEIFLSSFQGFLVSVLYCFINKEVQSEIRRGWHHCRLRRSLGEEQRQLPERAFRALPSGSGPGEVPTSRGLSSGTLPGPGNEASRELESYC

[5] = GLP-1 Receptor EC50, cAMP luciferase reporter assay as in Example 16
[6] = relative to the standard (Std.) EC50 of the same run
[7] = Glucagon Receptor EC50, cAMP luciferase reporter assay as in Example 16
[8] = GLP-1 Receptor EC50, nM, Table 1
[9] = Table 1, relative to the native hormone of the indicated receptor
[10] = Glucagon Receptor EC50, nM, Table 1

| SMILES | EC50 [1, 5] | GLP-1 Receptor relative activity [1, 6] | receptor activity profile (glucagon / GLP-1 / GIP agonism) [2] | EC50 [3, 7] | Glucagon Receptor relative activity [3, 6] | EC50 ([4]; GIP Receptor EC50, cAMP luciferase reporter assay as in Example 16) | GIP Receptor relative activity [4, 6] | EC50 ([1]; GLP-1 Receptor EC50, nM, Table 2) | GLP-1 Receptor relative activity ([1]; Table 2) | EC50 ([3]; Glucagon Receptor EC50, nM, Table 2, linear peptides with AIB at position 16 and/or 20) | Glucagon Receptor relative activity ([3]; Table 2) | EC50 ([4]; GIP Receptor EC50, nM, Table 2) | GIP Receptor relative activity ([4]; Table 2) | EC50 [1, 8] | GLP-1 Receptor relative activity [1, 9] | EC50 [3, 10] | Glucagon Receptor relative activity [3, 9] | EC50 ([4]; GIP Receptor EC50, nM, Table 1) | GIP Receptor relative activity [4, 9] |
| --- | --- | --- | --- | --- | --- | --- | --- | --- | --- | --- | --- | --- | --- | --- | --- | --- | --- | --- | --- |
| CCCCCCCCCCCCCCCCCC(=O)NCCCC[C@H](NC(=O)[C@H](CO)NC(=O)[C@@H]1CCCN1C(=O)[C@@H]1CCCN1C(=O)[C@@H]1CCCN1C(=O)[C@H](C)NC(=O)CNC(=O)[C@H](CO)NC(=O)[C@H](CO)NC(=O)[C@@H]1CCCN1C(=O)CNC(=O)CNC(=O)[C@H](C)NC(=O)[C@H](CC(C)C)NC(=O)[C@H](CC(C)C)NC(=O)[C@H](Cc1c[nH]c2ccccc12)NC(=O)[C@H](CS)NC(=O)[C@@H](NC(=O)[C@H](Cc1ccccc1)NC(=O)[C@H](CCC(=O)O)NC(=O)C(C)(C)NC(=O)[C@H](C)NC(=O)[C@H](C)NC(=O)[C@H](CCC(N)=O)NC(=O)[C@H](CCCCN)NC(=O)[C@H](CC(=O)O)NC(=O)[C@H](CC(C)C)NC(=O)[C@H](Cc1ccc(O)cc1)NC(=O)[C@@H](NC(=O)[C@H](CO)NC(=O)[C@H](Cc1ccc(O)cc1)NC(=O)[C@H](CC(=O)O)NC(=O)[C@H](CO)NC(=O)[C@@H](NC(=O)[C@H](Cc1ccccc1)NC(=O)[C@@H](NC(=O)CNC(=O)[C@H](CCC(N)=O)NC(=O)C(C)(C)NC(=O)[C@@H](N)Cc1ccc(O)cc1)[C@@H](C)O)[C@@H](C)O)[C@@H](C)CC)C(C)C)C(N)=O [mt-288] | 0.0138 nM | 84.78% | exhibited activity at the GIP, GLP-1, and glucagon receptors | 0.0207 nM | 250.72% | 0.0137 nM | 79.56% | – | – | – | – | – | – | – | – | – | – | – | – |
| CC[C@H](C)[C@H](NC(=O)[C@H](CO)NC(=O)[C@H](Cc1ccc(O)cc1)NC(=O)[C@H](CC(=O)O)NC(=O)[C@H](CO)NC(=O)[C@@H](NC(=O)[C@H](Cc1ccccc1)NC(=O)[C@@H](NC(=O)CNC(=O)[C@H](CCC(N)=O)NC(=O)C(C)(C)NC(=O)[C@@H](N)Cc1ccc(O)cc1)[C@@H](C)O)[C@@H](C)O)C(=O)N[C@@H](Cc1ccc(O)cc1)C(=O)N[C@@H](CC(C)C)C(=O)N[C@@H](CC(=O)O)C(=O)N[C@@H](CCCCN)C(=O)N[C@@H](CCC(N)=O)C(=O)N[C@@H](C)C(=O)N[C@@H](C)C(=O)NC(C)(C)C(=O)N[C@@H](CCC(=O)O)C(=O)N[C@@H](Cc1ccccc1)C(=O)N[C@H](C(=O)N[C@@H](CC(N)=O)C(=O)N[C@@H](Cc1c[nH]c2ccccc12)C(=O)N[C@@H](CC(C)C)C(=O)N[C@@H](CC(C)C)C(=O)N[C@@H](C)C(=O)NCC(=O)NCC(=O)N1CCC[C@H]1C(=O)N[C@@H](CO)C(=O)N[C@@H](CO)C(=O)NCC(=O)N[C@@H](C)C(=O)N1CCC[C@H]1C(=O)N1CCC[C@H]1C(=O)N1CCC[C@H]1C(=O)N[C@@H](CO)C(=O)N[C@@H](CS)C(N)=O)C(C)C [mt-252] | – | 116.67% | exhibited activities of glucagon/GLP-1/GIP triagonists; also recorded: exhibited activity at the GIP, GLP-1, and glucagon receptors | – | 13.17% | – | 146.15% | 0.018 nM | 116.67% | 0.319 nM | 13.17% | 0.013 nM | 146.15% | – | – | – | – | – | – |
| CC[C@H](C)[C@H](NC(=O)[C@H](CO)NC(=O)[C@H](Cc1ccc(O)cc1)NC(=O)[C@H](CC(=O)O)NC(=O)[C@H](CO)NC(=O)[C@@H](NC(=O)[C@H](Cc1ccccc1)NC(=O)[C@@H](NC(=O)CNC(=O)[C@H](CCC(N)=O)NC(=O)C(C)(C)NC(=O)[C@@H](N)Cc1ccc(O)cc1)[C@@H](C)O)[C@@H](C)O)C(=O)N[C@@H](Cc1ccc(O)cc1)C(=O)N[C@@H](CC(C)C)C(=O)N[C@@H](CC(=O)O)C(=O)N[C@@H](CCCCN)C(=O)N[C@@H](CCC(N)=O)C(=O)N[C@@H](C)C(=O)N[C@@H](C)C(=O)NC(C)(C)C(=O)N[C@@H](CCC(=O)O)C(=O)N[C@@H](Cc1ccccc1)C(=O)N[C@H](C(=O)N[C@@H](CC(N)=O)C(=O)N[C@@H](Cc1c[nH]c2ccccc12)C(=O)N[C@@H](CC(C)C)C(=O)N[C@@H](CC(C)C)C(=O)N[C@@H](C)C(=O)NCC(=O)NCC(=O)N1CCC[C@H]1C(=O)N[C@@H](CO)C(=O)N[C@@H](CO)C(=O)NCC(=O)N[C@@H](C)C(=O)N1CCC[C@H]1C(=O)N1CCC[C@H]1C(=O)N1CCC[C@H]1C(=O)N[C@@H](CO)C(=O)N[C@@H](CCCCN)C(N)=O)C(C)C [mt-280] (H-Y[Aib]QGTFTSDYSIYLDKQAA[Aib]EFVNWLLAGGPSSGAPPPSK-NH2; N-terminus assumed) | 0.0126 nM | 153.17% | exhibited activity at the GIP, GLP-1, and glucagon receptors | 0.0677 nM | 74.74% | – | 159.06% | – | – | – | – | – | – | – | – | – | – | – | – |
| CC[C@H](C)[C@H](NC(=O)[C@H](CO)NC(=O)[C@H](Cc1ccc(O)cc1)NC(=O)[C@H](CC(=O)O)NC(=O)[C@H](CO)NC(=O)[C@@H](NC(=O)[C@H](Cc1ccccc1)NC(=O)[C@@H](NC(=O)CNC(=O)[C@H](CCC(=O)O)NC(=O)C(C)(C)NC(=O)[C@@H](N)Cc1ccc(O)cc1)[C@@H](C)O)[C@@H](C)O)C(=O)N[C@@H](Cc1ccc(O)cc1)C(=O)N[C@@H](CC(C)C)C(=O)N[C@@H](CC(=O)O)C(=O)N[C@H]1CCC(=O)NCCCC[C@@H](C(=O)N[C@@H](CCC(=O)O)C(=O)N[C@@H](Cc2ccccc2)C(=O)N[C@H](C(=O)N[C@@H](CC(N)=O)C(=O)N[C@@H](Cc2c[nH]c3ccccc23)C(=O)N[C@@H](CC(C)C)C(=O)N[C@@H](CC(C)C)C(=O)N[C@@H](C)C(=O)NCC(=O)N[C@@H](CCCNC(=N)N)C(=O)N2CCC[C@H]2C(=O)N[C@@H](CO)C(=O)N[C@@H](CO)C(=O)NCC(=O)N[C@@H](C)C(=O)N2CCC[C@H]2C(=O)N2CCC[C@H]2C(=O)N2CCC[C@H]2C(=O)N[C@@H](CO)C(=O)N[C@@H](CS)C(N)=O)C(C)C)NC(=O)[C@H](C)NC(=O)[C@H](C)NC(=O)[C@H](CCC(N)=O)NC1=O [mt-204] (H-Y[Aib]EGTFTSDYSIYLDEQAAKEFVNWLLAGRPSSGAPPPSC-NH2; lactam 16-20; N-terminus assumed) | – | – | exemplary GLP-1/GIP co-agonist peptides | – | – | – | – | – | – | – | – | – | – | 0.018 nM | 161.11% | 108 nM | 0.06% | 0.147 nM | 19.73% |
| CC[C@H](C)[C@H](NC(=O)[C@H](CO)NC(=O)[C@H](Cc1ccc(O)cc1)NC(=O)[C@H](CC(=O)O)NC(=O)[C@H](CO)NC(=O)[C@@H](NC(=O)[C@H](Cc1ccccc1)NC(=O)[C@@H](NC(=O)CNC(=O)[C@H](CCC(N)=O)NC(=O)C(C)(C)NC(=O)[C@@H](N)Cc1ccc(O)cc1)[C@@H](C)O)[C@@H](C)CC)C(=O)N[C@@H](Cc1ccc(O)cc1)C(=O)N[C@@H](CC(C)C)C(=O)N[C@@H](CC(=O)O)C(=O)N[C@H]1CCC(=O)NCCCC[C@@H](C(=O)N[C@@H](CCC(=O)O)C(=O)N[C@@H](Cc2ccccc2)C(=O)N[C@H](C(=O)N[C@@H](CS)C(=O)N[C@@H](Cc2c[nH]c3ccccc23)C(=O)N[C@@H](CC(C)C)C(=O)N[C@@H](CC(C)C)C(=O)N[C@@H](C)C(=O)NCC(N)=O)C(C)C)NC(=O)[C@H](C)NC(=O)[C@H](C)NC(=O)[C@H](CCC(N)=O)NC1=O [mt-177] (H-Y[Aib]QGTFISDYSIYLDEQAAKEFVCWLLAG-NH2; lactam 16-20; N-terminus assumed) | – | – | exemplary GIP/glucagon co-agonist peptides | – | – | – | – | – | – | – | – | – | – | 21 nM | 0.10% | 0.095 nM | 38.95% | 0.114 nM | 19.30% |
